pKi: −log10 of the molar value.
Legend:
[1] = target: Kappa-type opioid receptor (Homo sapiens, UniProt P41145); experiment: Radioligand Dose-Displacement Binding Assay; details: pH 7.4; 25 °C
Experimental: Radioligand dose displacement assays used 0.4 nM [3H]-U69,593 (GE Healthcare, Piscataway, N.J.; 40 Ci/mmole) with 15 ug membrane protein (recombinant kippa opioid receptor expressed in HEK 293 cells; in-house prep) in a final volume of 200 ul binding buffer (5% DMSO, 50 mM Trizma base, pH 7.4). Non-specific binding was determined in the presence of 10 uM unlabeled naloxone or U69,593. All reactions were performed in 96-well polypropylene plates for 1 hour at a temperature of about 25 C. Binding reactions were terminated by rapid filtration onto 96-well Unifilter GF/C filter plates (Perkin Elmer, Shelton, Conn.) presoaked in 0.5% polyethylenimine (Sigma). Harvesting was performed using a 96-well tissue harvester (Perkin Elmer, Shelton, Conn.) followed by five filtration washes with 200 ul ice-cold binding buffer. Filter plates were subsequently dried at 50 C. for 1-2 hours. Fifty ul/well scintillation cocktail (Perkin Elmer, Shelton, Conn.) was added.

Mu-type opioid receptor = Mu-type opioid receptor (Homo sapiens, UniProt P35372); experiment: Radioligand Dose-Displacement Binding Assay; details: pH 7.4; 50 °C
Sequence of Mu-type opioid receptor (P35372 whole entry): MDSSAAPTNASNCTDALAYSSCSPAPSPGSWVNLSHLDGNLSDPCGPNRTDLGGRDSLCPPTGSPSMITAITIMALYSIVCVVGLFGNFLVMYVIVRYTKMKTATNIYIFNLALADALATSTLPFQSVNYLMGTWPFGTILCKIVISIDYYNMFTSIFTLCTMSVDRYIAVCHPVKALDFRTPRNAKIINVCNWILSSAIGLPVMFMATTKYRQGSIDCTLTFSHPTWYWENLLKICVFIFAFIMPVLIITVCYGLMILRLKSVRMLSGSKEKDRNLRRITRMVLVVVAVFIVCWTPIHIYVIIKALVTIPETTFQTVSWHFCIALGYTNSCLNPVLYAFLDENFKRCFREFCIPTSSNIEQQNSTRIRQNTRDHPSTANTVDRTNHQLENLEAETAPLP
Experimental: mu-Opioid Receptor Binding Assay Procedures: Radioligand dose-displacement binding assays for mu-opioid receptors used 0.3 nM [3H]-diprenorphine (Perkin Elmer, Shelton, Conn.), with […]/well in a final volume of 500 ul binding buffer (10 mM MgCl2, 1 mM EDTA, 5% DMSO, 50 mM HEPES, pH 7.4). Reactions were carried out in the absence or presence of increasing concentrations of unlabeled naloxone. All reactions were conducted in 96-deep well polypropylene plates for 2 hours at room temperature. Binding reactions were terminated by rapid filtration onto 96-well Unifilter GF/C filter plates (Perkin Elmer, Shelton, Conn.), presoaked in 0.5% polyethylenimine using a 96-well tissue harvester (Perkin Elmer, Shelton, Conn.) followed by performing three filtration washes with 500 ul of ice-cold binding buffer. Filter plates were subsequently dried at 50 C. for 2-3 hours. BetaScint scintillation cocktail (Perkin Elmer, Shelton, Conn.) was added (50 ul/well).

Sequence of Kappa-type opioid receptor (P41145 whole entry): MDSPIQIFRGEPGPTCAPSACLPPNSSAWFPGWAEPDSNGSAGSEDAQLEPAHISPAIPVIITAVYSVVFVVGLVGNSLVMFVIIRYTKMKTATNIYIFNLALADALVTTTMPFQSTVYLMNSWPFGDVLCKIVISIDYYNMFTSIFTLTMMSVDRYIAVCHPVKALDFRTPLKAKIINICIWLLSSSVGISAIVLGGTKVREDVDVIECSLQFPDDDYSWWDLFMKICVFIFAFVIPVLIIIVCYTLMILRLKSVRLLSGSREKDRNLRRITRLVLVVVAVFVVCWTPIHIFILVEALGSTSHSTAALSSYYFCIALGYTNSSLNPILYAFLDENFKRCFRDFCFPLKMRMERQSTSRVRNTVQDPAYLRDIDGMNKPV

COc1ccc2c(c1)[C@]13CCN(C)[C@H](C2)[C@]1(O)CC[C@@]1(C3)NC(=O)NC1=O [US8987287, 9]
pKi [1]: < 4.70
pKi (Mu-type opioid receptor): 5.41

From BindingDB's records for patent US8987287 (Purdue Pharma, 2015)
